Measured values reported in patent US10857110B2, “Antibacterial compounds” (CONSEJO NACIONAL DE INVESTIGACIONES CIENTÍFICAS Y TÉCNICAS …, priority 2016, dated 2020).
In brackets after ≈: the same amount, converted by molar mass.

Columns and labels:
[1] = system: Burkholderia seminalis (CBC 040); details: reference (1); cited from earlier work
B. cenacepacia (FQC2524) = experiment: MIC/MBC antibiotic sensitivity (CLSI); format: cell-based, B. cenocepacia; details: Ceftazimide, CLSI criteria
Protocol: (§1) The new compounds of the invention were synthesized following the general method of preparation (Tetrahedron, 2001, 57, 1671-1675), from the reaction between an intermediary compound of the acyl thiourea and HgCl2 in presence of trimethylamine. The products were adequately characterized regarding its chemistry. The antibacterial activity of the new compounds was assayed against two Gram-positive reference strains: Staphylococcus aureus (ATCC6538) and Bacillus cereus (ATCC10876), a fermenting Gram-negative strain: Escherichia coli (ATCC25922), and 26 non-fermenting Gram-negative isolates, including 3 reference strains: Pseudomonas aeruginosa (PAO1), Bordetella bronchiseptica (9.73H+), and Inquilinus limosus (DSM16000), and 23 isolates recovered from patients suffering from cystic fibrosis, including one Achromobacter xylosoxidans isolate, and 22 isolates belonging to the Burkholderia cepacia complex. The later were selected because they presented resistance to a high number of antimicrobial compounds, among a panel of 125 clinical isolates previously analyzed for its resistance against 17 antimicrobial compounds (1,2). The antibiotic sensitivity studies were performed by applying two quantitative methods which allow to determine the minimum inhibitory concentration (MIC) and the minimum bactericidal concentration (MBC).
(§2) The compounds obtained in Examples 1 and 2 were assayed against 23 isolates recovered from the sputum of patients suffering from cystic fibrosis being treated at the Sor Maria Ludovica Children Hospital (La Plata, Buenos Aires, Argentina). Nineteen of these isolates were selected for being highly resistant to most of the antimicrobial agents of clinical use from a panel of 125 isolates previously characterized in Martina et al. (1). Reference strains were also included: Gram (+) bacteria: B. cereus and S. aureus, fermenting Gram (−) bacteria: E. coli, and non-fermenting Gram (−) bacteria: Inquilinus limosus (DSM16000), B. bronchiseptica, and Pseudomonas aeruginosa (PAO1). The antibiotic sensitivity studies were performed applying two quantitative methods which allow to determine the minimum inhibitory concentration (MIC) and the minimum bactericidal concentration (MBC) according to the criteria established by the Clinical and Laboratory Standards Institute (CLSI) (4). For comparative purposes, three antibiotics commonly used in the treatment of pulmonary infections in cystic fibrosis patients were included in the study: tobramycin, ceftazidime and meropenem.

[2] = system: Achromobacter xylosaxidans (HNA001); experiment: MIC/MBC antibiotic sensitivity (CLSI); format: cell-based, Achromobacter xylosoxidans; details: Ceftazimide, CLSI criteria; A. xylosaxidans (HNA001)
Protocol: as §1, §2

[3] = system: Burkholderia cenocepacia (CBC 035); experiment: MIC/MBC antibiotic sensitivity (CLSI); format: cell-based
Protocol: as §1, §2

[4] = system: Burkholderia multivorans (CBC 020); experiment: MIC/MBC antibiotic sensitivity (CLSI); format: cell-based; details: Ceftazimide, CLSI criteria; B. multivorans (CBC 020)
Protocol: as §1, §2

[5] = system: Bacillus cereus (ATCC10876); experiment: MIC/MBC antibiotic sensitivity (CLSI); format: cell-based
Protocol: as §1, §2

[6] = system: Burkholderia cenocepacia (CBC 023); experiment: MIC/MBC antibiotic sensitivity (CLSI); format: cell-based; details: Ceftazimide, CLSI criteria; B. cenocepacia (CBC 023)
Protocol: as §1, §2

[7] = system: Burkholderia cenocepacia (CBC 031); experiment: MIC/MBC antibiotic sensitivity (CLSI); format: cell-based
Protocol: as §1, §2

[8] = system: Burkholderia multivorans (CBC 018); experiment: MIC/MBC antibiotic sensitivity (CLSI); format: cell-based
Protocol: as §1, §2

[9] = system: Burkholderia multivorans (CBC 016); experiment: MIC/MBC antibiotic sensitivity (CLSI); format: cell-based
Protocol: as §1, §2

[10] = system: Burkholderia cenocepacia (HE001); experiment: MIC/MBC antibiotic sensitivity (CLSI); format: cell-based; details: Ceftazimide, CLSI criteria; B. cenocepacia (HE001)
Protocol: as §1, §2

[11] = system: Escherichia coli (ATCC25922); experiment: MIC/MBC antibiotic sensitivity (CLSI); format: cell-based; details: E. coli (ATCC25922)
Protocol: as §1, §2

[12] = system: Burkholderia cenocepacia (CBC 032); experiment: MIC/MBC antibiotic sensitivity (CLSI); format: cell-based
Protocol: as §1, §2

[13] = system: Burkholderia multivorans (CBC 019); experiment: MIC/MBC antibiotic sensitivity (CLSI); format: cell-based; details: Ceftazimide, CLSI criteria; B. multivorans (CBC 019)
Protocol: as §1, §2

[14] = system: Burkholderia cenocepacia (CBC 029); experiment: MIC/MBC antibiotic sensitivity (CLSI); format: cell-based
Protocol: as §1, §2

[15] = system: Burkholderia cepacia (CBC 010); experiment: MIC/MBC antibiotic sensitivity (CLSI); format: cell-based; details: Ceftazimide, CLSI criteria; B. cepacia (CBC 010)
Protocol: as §1, §2

[16] = system: Burkholderia multivorans (CBC 022); experiment: MIC/MBC antibiotic sensitivity (CLSI); format: cell-based; details: Ceftazimide, CLSI criteria; B. multivorans (CBC 022)
Protocol: as §1, §2

[17] = system: Burkholderia cenocepacia (CBC 024); experiment: MIC/MBC antibiotic sensitivity (CLSI); format: cell-based
Protocol: as §1, §2

B. contaminans (HNBC001) = experiment: MIC/MBC antibiotic sensitivity (CLSI); format: cell-based; details: Ceftazimide, CLSI criteria
Protocol: as §1, §2

[18] = system: Burkholderia multivorans (CBC 021); experiment: MIC/MBC antibiotic sensitivity (CLSI); format: cell-based; details: Ceftazimide, CLSI criteria; B. multivorans (CBC 021)
Protocol: as §1, §2

[19] = system: Burkholderia seminalis (CBC 040); experiment: MIC/MBC antibiotic sensitivity (CLSI); format: cell-based; details: Ceftazimide, CLSI criteria; B. seminalis (CBC 040)
Protocol: as §1, §2

[20] = system: Staphylococcus aureus (ATCC6538); experiment: MIC/MBC antibiotic sensitivity (CLSI); format: cell-based; details: S. aureus (ATCC6538)
Protocol: as §1, §2

[21] = system: Burkholderia cepacia (CBC 011); experiment: MIC/MBC antibiotic sensitivity (CLSI); format: cell-based; details: Ceftazimide, CLSI criteria; B. cepacia (CBC 011)
Protocol: as §1, §2

[22] = system: Burkholderia multivorans (CBC 015); experiment: MIC/MBC antibiotic sensitivity (CLSI); format: cell-based
Protocol: as §1, §2

[23] = system: Burkholderia cenocepacia (CBC 036); experiment: MIC/MBC antibiotic sensitivity (CLSI); format: cell-based
Protocol: as §1, §2

[24] = system: Burkholderia cenocepacia (CBC 033); experiment: MIC/MBC antibiotic sensitivity (CLSI); format: cell-based
Protocol: as §1, §2

[25] = system: Bordetella bronchiseptica (9.73H+); experiment: MIC/MBC antibiotic sensitivity (CLSI); format: cell-based; details: B. bronchiseptica (9.73H+)
Protocol: as §1, §2

[26] = system: Pseudomonas aeruginosa (PAO1); experiment: MIC/MBC antibiotic sensitivity (CLSI); format: cell-based; details: P. aeruginosa (PAO1)
Protocol: as §1, §2

[27] = system: Inquilinus limosus (DSM16000); experiment: MIC/MBC antibiotic sensitivity (CLSI); format: cell-based; details: Ceftazimide, CLSI criteria
Protocol: as §1, §2

[28] = system: Burkholderia seminalis (CBC 042); experiment: MIC/MBC antibiotic sensitivity (CLSI); format: cell-based; details: Ceftazimide, CLSI criteria; B. seminalis (CBC 042)
Protocol: as §1, §2

Compound: CC(C)(O/N=C(\C(=O)N[C@@H]1C(=O)N2C(C(=O)[O-])=C(C[n+]3ccccc3)CS[C@H]12)c1csc(N)n1)C(=O)O [Ceftazimide, ceftazidime]
- resistance of the strain to commercial antibiotics [1]: resistant
- MIC (R/I/S category) (B. cenacepacia (FQC2524)): S (<8 μg/ml S)
- MIC (R/I/S category) [2]: S (<8 μg/ml S)
- MBC ([3]; Burkholderia cenocepacia (CBC 035)): 15.62 µg/mL (≈ 28.6 µM)
- MIC (R/I/S category) ([3]; Ceftazimide, CLSI criteria, B. cenocepacia (CBC 035)): S (<8 μg/ml S)
- MIC (R/I/S category) [4]: R (>32 μg/ml R)
- MBC [5]: 0.97 µg/mL (≈ 1.77 µM)
- MIC [5]: 0.97 µg/mL (≈ 1.77 µM)
- MIC (R/I/S category) [6]: R (>32 μg/ml R)
- MBC ([7]; Burkholderia cenocepacia (CBC 031)): 7.81 µg/mL (≈ 14.3 µM)
- MIC (R/I/S category) ([7]; Ceftazimide, CLSI criteria, B. cenocepacia (CBC 031)): S (<8 μg/ml S)
- MBC ([8]; Burkholderia multivorans (CBC 018)): 7.81 µg/mL (≈ 14.3 µM)
- MIC (R/I/S category) ([8]; Ceftazimide, CLSI criteria, B. multivorans (CBC 018)): S (<8 μg/ml S)
- MBC ([9]; Burkholderia multivorans (CBC 016)): 3.9 µg/mL (≈ 7.14 µM)
- MIC (R/I/S category) ([9]; Ceftazimide, CLSI criteria, B. multivorans (CBC 016)): S (<8 μg/ml S)
- MIC (R/I/S category) [10]: R (>32 μg/ml R)
- MBC [11]: 0.97 µg/mL (≈ 1.77 µM)
- MIC [11]: 0.97 µg/mL (≈ 1.77 µM)
- MBC ([12]; Burkholderia cenocepacia (CBC 032)): 7.81 µg/mL (≈ 14.3 µM)
- MIC (R/I/S category) ([12]; Ceftazimide, CLSI criteria, B. cenocepacia (CBC 032)): S (<8 μg/ml S)
- MIC (R/I/S category) [13]: R (>32 μg/ml R)
- MBC ([14]; Burkholderia cenocepacia (CBC 029)): 15.62 µg/mL (≈ 28.6 µM)
- MIC (R/I/S category) ([14]; Ceftazimide, CLSI criteria, B. cenocepacia (CBC 029)): S (<8 μg/ml S)
- MIC (R/I/S category) [15]: R (>32 μg/ml R)
- MIC (R/I/S category) [16]: R (>32 μg/ml R)
- MBC ([17]; Burkholderia cenocepacia (CBC 024)): 7.81 µg/mL (≈ 14.3 µM)
- MIC (R/I/S category) ([17]; Ceftazimide, CLSI criteria, B. cenocepacia (CBC 024)): S (<8 μg/ml S)
- MIC (R/I/S category) (B. contaminans (HNBC001)): S (<8 μg/ml S)
- MIC (R/I/S category) [18]: R (>32 μg/ml R)
- MIC (R/I/S category) [19]: R (>32 μg/ml R)
- MBC [20]: 7.81 µg/mL (≈ 14.3 µM)
- MIC [20]: 7.81 µg/mL (≈ 14.3 µM)
- MIC (R/I/S category) [21]: R (>32 μg/ml R)
- MBC ([22]; Burkholderia multivorans (CBC 015)): 7.81 µg/mL (≈ 14.3 µM)
- MIC (R/I/S category) ([22]; Ceftazimide, CLSI criteria, B. multivorans (CBC 015)): S (<8 μg/ml S)
- MBC ([23]; Burkholderia cenocepacia (CBC 036)): 15.62 µg/mL (≈ 28.6 µM)
- MIC (R/I/S category) ([23]; Ceftazimide, CLSI criteria, B. cenocepacia (CBC 036)): S (<8 μg/ml S)
- MBC ([24]; Burkholderia cenocepacia (CBC 033)): 31.25 µg/mL (≈ 57.2 µM)
- MIC (R/I/S category) ([24]; Ceftazimide, CLSI criteria, B. cenocepacia (CBC 033)): S (<8 μg/ml S)
- MBC [25]: 62.5 µg/mL (≈ 114 µM)
- MIC [25]: 7.81 µg/mL (≈ 14.3 µM)
- MBC [26]: 1.95 µg/mL (≈ 3.57 µM)
- MIC [26]: 1.95 µg/mL (≈ 3.57 µM)
- MIC (R/I/S category) [27]: R (>32 μg/ml R)
- MIC (R/I/S category) [28]: R (>32 μg/ml R)

Compound: NCC[C@H](O)C(=O)N[C@@H]1C[C@H](N)[C@@H](O[C@H]2O[C@H](CN)[C@@H](O)[C@H](O)[C@H]2O)[C@H](O)[C@H]1O[C@H]1O[C@H](CO)[C@@H](O)[C@H](N)[C@H]1O [amikacin]
- resistance of the strain to commercial antibiotics [1]: resistant

Compound: CC1(C)S[C@@H]2[C@H](NC(=O)[C@H](N)c3ccccc3)C(=O)N2[C@H]1C(=O)O [ampicillin]
- resistance of the strain to commercial antibiotics [1]: resistant

Compound: CC(=O)OCC1=C(C(=O)O)N2C(=O)[C@@H](NC(=O)Cc3cccs3)[C@H]2SC1 [cefalotin]
- resistance of the strain to commercial antibiotics [1]: resistant

Compound: CO/N=C(\C(=O)N[C@@H]1C(=O)N2C(C(=O)[O-])=C(C[N+]3(C)CCCC3)CS[C@H]12)c1csc(N)n1 [cefepime]
- resistance of the strain to commercial antibiotics [1]: resistant

Compound: CO/N=C(\C(=O)N[C@@H]1C(=O)N2C(C(=O)O)=C(COC(C)=O)CS[C@H]12)c1csc(N)n1 [cefotaxim]
- resistance of the strain to commercial antibiotics [1]: resistant

Compound: CO[C@@]1(NC(=O)Cc2cccs2)C(=O)N2C(C(=O)O)=C(COC(N)=O)CS[C@@H]21 [cefoxitin]
- resistance of the strain to commercial antibiotics [1]: resistant

Compound: O=C(O)c1cn(C2CC2)c2cc(N3CCNCC3)c(F)cc2c1=O [ciprofloxacin]
- resistance of the strain to commercial antibiotics [1]: resistant

Compound: CCn1cc(C(=O)O)c(=O)c2ccc(C)nc21 [nalidixic acid]
- resistance of the strain to commercial antibiotics [1]: resistant

Compound: colistin
- resistance of the strain to commercial antibiotics [1]: resistant

Compound: gentamicin
- resistance of the strain to commercial antibiotics [1]: resistant
